From patent US20240182453A1, “NOVEL SUBSTITUTED PYRAZINE-CARBOXAMIDE DERIVATIVES” (Boehringer Ingelheim International GmbH, priority 2022, published 2024)

Biological target: human metabotropic Glutamate 4 receptor (mGluR4) (Homo sapiens (Human), UniProt Q14833)
Experiment: Assay A: in vitro testing of mGluR4 potency (glutamate-induced cAMP lowering, HTRF cAMP)
Type: cell-based
Details: HEK293 cells overexpressing human mGluR4; 10 uM L-glutamic acid, 1 uM forskolin; compounds of the present invention
Procedure, shortened: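 HEK293 cells overexpressing human mGluR4 treated 30 min at room temperature with compound plus 10 uM L-glutamate, 1 uM forskolin, 0.5 mM IBMX, 0.1% BSA, 1% DMSO. cAMP read by HTRF (665/615 nm ratio), normalized to glutamate (100%) and no-glutamate (0%) controls as percent of control.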

Chain of human metabotropic Glutamate 4 receptor (mGluR4) (Q14833 33-912): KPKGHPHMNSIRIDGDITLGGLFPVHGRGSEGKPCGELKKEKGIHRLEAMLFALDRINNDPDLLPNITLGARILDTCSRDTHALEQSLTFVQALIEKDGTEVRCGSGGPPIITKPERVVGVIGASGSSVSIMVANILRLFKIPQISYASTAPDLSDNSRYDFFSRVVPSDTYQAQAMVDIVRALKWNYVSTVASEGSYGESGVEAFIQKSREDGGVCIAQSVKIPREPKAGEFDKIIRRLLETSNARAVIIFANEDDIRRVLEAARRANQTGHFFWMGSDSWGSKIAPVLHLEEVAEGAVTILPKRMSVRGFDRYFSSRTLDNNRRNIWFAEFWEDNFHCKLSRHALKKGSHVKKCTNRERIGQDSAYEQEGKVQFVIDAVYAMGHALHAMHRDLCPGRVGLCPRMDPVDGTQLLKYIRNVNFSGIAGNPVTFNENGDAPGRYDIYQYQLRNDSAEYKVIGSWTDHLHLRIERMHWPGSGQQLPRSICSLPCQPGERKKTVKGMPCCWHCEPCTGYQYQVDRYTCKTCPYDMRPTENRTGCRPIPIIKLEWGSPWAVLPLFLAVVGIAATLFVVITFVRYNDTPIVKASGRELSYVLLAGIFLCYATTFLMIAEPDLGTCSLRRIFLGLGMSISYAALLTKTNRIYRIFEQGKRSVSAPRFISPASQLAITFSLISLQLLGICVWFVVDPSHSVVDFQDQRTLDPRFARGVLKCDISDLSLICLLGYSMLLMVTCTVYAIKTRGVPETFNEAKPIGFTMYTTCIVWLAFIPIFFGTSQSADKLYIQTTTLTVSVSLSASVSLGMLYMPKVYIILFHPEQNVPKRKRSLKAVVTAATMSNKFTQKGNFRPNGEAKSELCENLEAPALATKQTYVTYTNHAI

CCn1c([C@@H](NC(=O)c2cnc(C)cn2)[C@@]2(O)CCOC2)nc2cc(C(F)(F)F)ccc21 [Example 167, N-[(R)-[1-ethyl-5-(trifluoromethyl)-1H-1,3-benzodiazol-2-yl][(3S)-3-hydroxyoxolan-3-yl]methyl]-5-methylpyrazine-2-carboxamide]
IC50: 55 nM
